Patent US20250011303A1, “SMALL MOLECULE MODULATORS OF IL-17A, METHODS OF MAKING AND METHODS OF USING THEREOF” (ASCLETIS BIOSCIENCE CO., LTD, priority 2023, published 2025)

Experiments:
[1] = Pharmacokinetics after oral gavage in fasted SD rats; type: in vivo; conditions: PO 10 mg per kilogram, plasma; for AUC: 0.25-24 hours; for bioavailability: rat, 10 mg per kilogram body weight
Procedure: Compounds of the present application were formulated in 40% PEG400/10% solutol/2% Tween 80/48% saline (v/v/v/v), and administered via oral gavage (PO) at the dosages of 10 mg per kilogram body weight in fasted SD rats. Plasma samples were collected at 0.25, 0.5, 1, 2, 4, 8, and 24 hours post dosing. Compound concentration was determined by LC-MS and pharmacokinetics parameters were calculated by WinNonlin 8.2 using Non-Compartmental Analysis model.

[2] = tested on: HEK-Blue IL-17 cells with rhIL-17A/A; test: HEK-Blue IL-17 cell assay (SEAP reporter, rhIL-17A/A stimulation); type: cell-based, human; conditions: Homo sapiens, HEK-Blue, 20 h, 20 hours incubation, absorbance at 405 nm, read-out: IC50 in HEK-Bule cell Assay
Procedure: • 1. The test Compounds were 3-fold serial diluted from 10 mM for 10 doses in DMSO. • 2. Prepare Reference Compounds (IL-17A-Inhibitor-1) were 3-fold serial diluted from 1 mM for 10 doses in DMSO. • 3. Prepare 1000× Positive control (1 mM IL-17A-Inhibitor-1) and 1000× vehicle control (100% DMSO).
• a) Cells were cultured as the HEK-Blue™ IL-17 technical data sheet recommended. HEK-Blue IL-17 cells were assayed in the exponential growth phase. • b) Aspirate growth medium and rinse cells twice with PBS to remove phenol red. • c) Resuspend cells in test medium to a proper concentration. • d) Only cells with viability greater than 90% were used for assays. • e) Transfer 25 nl of compound dilutions into 384-well assay plates using Echo655; • f) Seed 25 ul of HEK-Blue IL-17 cells at 8,000 cells/well into 384-well plate with rhIL-17A/A. • g) Cells were incubated for 20 hours at 37° C. under 5% CO2 atmosphere. • h) Transfer 2 ul of cells supernatant into per well of 384-well assay plates. • i) Add 20 ul of PNPP substrate. • j) Measure the Absorbance at 405 nm on Envision 2105 plate reader.
RLU signal (LUMcmpd) is calculated for each well.
% Inhibition is calculated as follow: […]
Signalave_pc: The average signal for the positive controls across the plate.
Signalave_vc: The average signal for negative controls across the plate.
Calculate IC50 and Plot effect-dose curve of cmpds:
Calculate IC50 by fitting % Inhibition values and log of compound concentrations to nonlinear regression (dose response−variable slope) with Graphpad 8.0.

| SMILES | AUC [1] [ng · h/m] | bioavailability [1] [%] | IC50 [2] [nM] |
| --- | --- | --- | --- |
| CC(C)[C@H]1C[C@@H](C(=O)N2CC(F)(F)C2)c2ccc(NC(=O)[C@@H](NC(=O)c3ccnn3C(C)C)C(C3CC3)C3CC3)cc2O1 [Compound 161] | 9703 | 63.5 | 43.3 |
| CC(C)[C@H]1C[C@@H](C(=O)N2CC(F)(F)C2)c2ccc(NC(=O)[C@@H](NC(=O)c3ccnn3C(C)C)C3CCCCCC3)cc2O1 [Compound 204] | 18980 | 34.8 | 46.6 |
| CC(C)n1nccc1C(=O)N[C@H](C(=O)Nc1ccc2c(c1)OC1(CCC(F)(F)CC1)CC2C(=O)N1CC(F)(F)C1)C1CCCCCC1 (stereo partly shown) [Compound 225] | 7840 | 57.6 | 44.9 |
| CC(C)n1nccc1C(=O)N[C@H](C(=O)Nc1ccc2c(c1)OC(C1CC(F)(F)C1)CC2C(=O)N1CC(C(F)F)C1)C1CCCCCC1 (stereo partly shown) [Compound 232] |  |  | 77.1 |
| CC1CN(C(=O)N2CC(F)(F)C2)c2ccc(NC(=O)[C@@H](NC(=O)c3ccnn3C(C)C)C3CCCCCC3)cc2O1 (stereo partly shown) [Compound 235] |  |  | 71.9 |
| CC(C)n1nccc1C(=O)N[C@H](C(=O)Nc1cc2c(cc1F)C(C(=O)N1CC(F)(F)C1)CC1(CCOCC1)O2)C1CCCCCC1 (stereo partly shown) [Compound 236] |  |  | 14.9 |
| CC(C)n1nccc1C(=O)N[C@H](C(=O)Nc1cc2c(cc1F)C(C(=O)N1CC(F)(F)C1)CC1(CCOCC1)O2)C(C1CC1)C1CC1 (stereo partly shown) [Compound 237] |  |  | 26.1 |
| CC(C)n1nccc1C(=O)N[C@H](C(=O)Nc1ccc2c(c1)OC1(CCOCC1)CC2C(=O)N1CC(F)(F)C1)[C@H]1CC[C@H](C)CC1 (stereo partly shown) [Compound 239] |  |  | 31.1 |
| CC(C)n1nccc1C(=O)N[C@H](C(=O)Nc1ccc2c(c1)O[C@@H](C1CC(F)(F)C1)C[C@H]2C(=O)N1CC(F)(F)C1)C1CCC(F)(F)CC1 [Compound 240] |  |  | 48.3 |
| CC(C)n1nccc1C(=O)N[C@H](C(=O)Nc1ccc2c(c1)O[C@@H](C1CC(F)(F)C1)C[C@H]2C(=O)N1CC(F)(F)C1)[C@H]1CC[C@H](C)CC1 [Compound 241] |  |  | 15.9 |
| CC(C)n1nccc1C(=O)N[C@H](C(=O)Nc1ccc2c(c1)OC1(CCC(F)(F)CC1)CC2C(=O)N1CC(F)(F)C1)C(C1CC1)C1CC1 (stereo partly shown) [Compound 243] |  |  | 122 |
| CC(C)n1nccc1C(=O)N[C@H](C(=O)Nc1cc2c(cc1F)C(C(=O)N1CC(F)(F)C1)CC1(CCOCC1)O2)[C@H]1CC[C@H](C)CC1 (stereo partly shown) [Compound 244] |  |  | 13.5 |
| CC(C)n1nccc1C(=O)N[C@H](C(=O)Nc1cc2c(cc1F)[C@H](C(=O)N1CC(F)(F)C1)C[C@H](C1CC(F)(F)C1)O2)C(C1CC1)C1CC1 [Compound 245] |  |  | 22 |
| CC(C)n1nccc1C(=O)N[C@H](C(=O)Nc1ccc2c(c1)OC1(CCOCC1)CN2C(=O)N1CC(F)(F)C1)C(C1CC1)C1CC1 [Compound 246] |  |  | 18.2 |
| CC(C)C1CN(C(=O)N2CC(F)(F)C2)c2ccc(NC(=O)[C@@H](NC(=O)c3ccnn3C(C)C)C(C3CC3)C3CC3)cc2O1 (stereo partly shown) [Compound 247] |  |  | 30.4 |
| CC(C)n1nccc1C(=O)N[C@H](C(=O)Nc1cc2c(cc1F)[C@H](C(=O)N1CC(F)(F)C1)C[C@H](C1CC(F)(F)C1)O2)[C@H]1CC[C@H](C)CC1 [Compound 248] | 6093 | 70.7 | 24.4 |
| CC(C)n1nccc1C(=O)N[C@H](C(=O)Nc1cc2c(cc1F)[C@H](C(=O)N1CC(F)(F)C1)C[C@H](C1CC(F)(F)C1)O2)C1CCC(F)(F)CC1 [Compound 249] |  |  | 99.3 |
